Measurements published in US12679878B2, “CRF2 receptor agonists and their use in therapy” (SANOFI, priority 2020, dated 2026).
Like-named read-outs stand apart in the source and are kept apart here. Starred links: 1 amine or outer side, 2 acyl side, 3 side chain; linkers in the order of their positions; H or OH if unused. Non-standard residues stand in square brackets, D forms with d. Residues, ends and D or L forms follow the SMILES beside them. Groups on a side chain read outwards from the residue. *: point of attachment. C18 diacid = O=C(O)CCCCCCCCCCCCCCCCC(=O)*; γGlu = O=C(O)[C@H](CCC(=O)[*:2])N[*:1]; Palmitoyl = CCCCCCCCCCCCCCCC(=O)*; AEEA = NCCOCCOCC(=O)O; Aib = CC(C)(N)C(=O)O

Tests used:
[1] = target: T1, CRF2R (Homo sapiens, UniProt Q13324); test: EC50 [nM] CRF2R
T1 construct: expressed in transfected cells; host or cells: TeloHEAC
Description: (§1) Table printed on a drawing sheet, Fig. 3
Head of the field: EC50 [nM] CRF2R
(§2) The patent's description of the figure: FIG. 3: Representative sequences from peptides according to the invention with an optimized stability profile, wherein K[sema] stands for K[gGlu-C(O)(CH2)14CH3]
(§3) First copying reader's note: Second half (positions 13-38, C-term and activity) of the first table; the rows follow the same order, so the four rows of Peptide Seq. 1 are Patent Sequence N° 130, 171, 172 and 173.
Where the first naming reader finds the target: head: EC50 [nM] CRF2R

[2] = target: T2, hCRF1 (Homo sapiens, UniProt P34998); test: hCRF1 EC50 [nM]
T2 construct: host or cells: CHO-K1 clone 2
Description: as §1
Head of the field: hCRF1 EC50 [nM]
as §2, §3
Where the first naming reader finds the target: head: hCRF1 EC50 [nM]

[3] = target: T3, human CRF2α receptor (Homo sapiens, UniProt Q13324); test: cAMP agonism at human CRF2 α receptor in TeloHEAC cells (Example 7); format: cell-based; settings: cAMP HTRF, TeloHEAC cells stably expressing human CRF2 α
T3 construct: expressed in transfected cells; host or cells: TeloHEAC
T3 sequence (Q13324 1-411): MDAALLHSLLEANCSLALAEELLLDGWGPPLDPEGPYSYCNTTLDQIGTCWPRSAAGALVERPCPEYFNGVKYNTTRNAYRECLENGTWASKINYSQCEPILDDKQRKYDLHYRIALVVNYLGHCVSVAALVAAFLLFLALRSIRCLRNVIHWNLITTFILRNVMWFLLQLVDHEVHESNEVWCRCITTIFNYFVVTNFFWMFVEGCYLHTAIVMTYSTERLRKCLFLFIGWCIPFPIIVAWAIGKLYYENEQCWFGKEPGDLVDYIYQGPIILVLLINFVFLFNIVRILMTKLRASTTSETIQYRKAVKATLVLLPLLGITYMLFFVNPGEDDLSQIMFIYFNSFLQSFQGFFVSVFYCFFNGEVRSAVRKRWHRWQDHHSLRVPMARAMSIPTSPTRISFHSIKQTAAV
In short: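 Cryopreserved cells are thawed, washed and resuspended in IBMX-containing (2 mM) HEPES-buffered HBSS with or without 0.1% HSA. Compound incubation runs 30 min at room temperature with 2000 cells per well, then cAMP is measured by time-resolved FRET. Potency is expressed as EC50, efficacy relative to urocortin 2 at 1000 nM.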

[4] = system: rat CRF2R α receptor; test: cAMP agonism at rat CRF2R α receptor in A7R5 rat aortic smooth muscle cells (Example 8); format: cell-based; settings: cAMP HTRF, A7R5 rat aortic smooth muscle cell line, 0% HSA
In short: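 Thawed cryopreserved A7R5 cells in HBSS/20 mM HEPES (0 or 0.1% HSA) with 2 mM IBMX, 2000 cells/well, were exposed to compound for 30 min at room temperature. cAMP was read by HTRF (665/620 nm ratio) after 1 h with lysis reagents. Activity was normalised to 1000 nM urocortin 2 as 100%, and EC50 was taken as the concentration giving 50% of maximal activation.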

[5] = target: T4, CRF1R receptor (Homo sapiens, UniProt P34998); test: cAMP activity at anti-target CRF1R, CRF1R-overexpression CHO cell line (Example 9); format: cell-based; settings: CRF1R-overexpression CHO cell line
T4 construct: host or cells: CHO-K1 clone 2
T4 sequence (P34998 24-415): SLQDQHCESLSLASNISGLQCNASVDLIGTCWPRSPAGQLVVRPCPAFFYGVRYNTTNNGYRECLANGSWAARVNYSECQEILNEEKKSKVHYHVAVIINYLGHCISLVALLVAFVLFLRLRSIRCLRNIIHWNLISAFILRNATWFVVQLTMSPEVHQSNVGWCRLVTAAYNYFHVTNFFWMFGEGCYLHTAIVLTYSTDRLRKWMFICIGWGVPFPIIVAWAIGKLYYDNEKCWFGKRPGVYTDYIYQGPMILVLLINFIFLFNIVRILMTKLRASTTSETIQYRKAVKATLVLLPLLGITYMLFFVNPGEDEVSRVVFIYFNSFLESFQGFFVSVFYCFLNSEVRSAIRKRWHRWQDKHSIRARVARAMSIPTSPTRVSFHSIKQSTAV
In short: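 cAMP accumulation was read by HTRF after 30 min at room temperature of compound treatment. Cells were cryopreserved CHO cells overexpressing CRF1R, plated at 2000/well in IBMX (2 mM)-containing HBSS/HEPES buffer with 0 or 0.1% HSA. Activity was normalized to 1000 nM UCN2 as 100%.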

[6] = target: T5, endogenous human CRF2 (Homo sapiens, UniProt Q13324); test: cAMP agonist effect in NCI-H82 cells expressing endogenous human CRF2 (Example 10); format: cell-based; settings: cAMP HTRF, 5 min activation
T5 construct: endogenous in cells; host or cells: NCI-H82
T5 sequence (Q13324 1-411): T3 sequence (Q13324 1-411)
Protocol: The agonist effect of the compounds was assessed in NCI-H82 cells expressing endogenous human CRF2.
NCI-H82 cells in suspension were plated in low-volume 384-well plates at a density of 30000 cells/well in 5 μl of test medium (RPMI+1 mM IBMX). The plates were briefly centrifuged at 800 rpm to allow the cell suspension to move to the bottom of the wells and then incubated for 2 hours at 37° C. in 5% CO2. 5 μl of test compounds at appropriate concentrations (10-11 to 3×10-7) diluted in test medium were then transferred in 384 wells plates. After 5 min of activation, the reaction was stopped by addition of HTRF revelation reagents with a multidrop dispenser. The two reagents were 5 μl/well of Anti-CAMP-cryptate diluted 20-fold in conjugate and lysis buffer and 5 μl/well of cAMP-D2 diluted 20-fold in conjugate and lysis buffer. After one-hour incubation at room temperature in the dark, the plates were read on a Clariostar apparatus.

[7] = Chemical stability, purity loss by UPLC-UV after 28 days at 40° C. vs 5° C., pH 4.5 acetate buffer (Example 12); format: physicochemical; settings: 28 days 40° C. vs 5° C.; pH 4.5, 20 mM acetate buffer; 300 μM
In short: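 300 μM compound (purity-corrected) in 20 mM acetate buffer, pH 4.5, stored 28 days at 5 and 40° C. Purity by UPLC-UV as compound peak area over total peak area. Value is the purity difference between 5° C. and 40° C. samples, relative to the 5° C. purity, in percent.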

[8] = Physical stability, Thioflavin T fibrillation assay (Example 14); format: physicochemical; settings: Buffer B: 100 mM acetate buffer, pH 4.5, 2.7 mg/ml m-cresol; 3 mg/ml; 37° C. shaking
In short: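 Compounds at 3 mg/ml final in buffer were stressed at 37° C by repeated cycles of 10 s shaking at 960 rpm and 50 s rest. ThT fluorescence was read every 20 minutes in eight replicates, with fluorescence increase and lag time indicating fibrillation tendency.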

Structure (SMILES)	EC50 [1] [nM]	EC50 [2] [nM]	EC50 ([3]; 0% HSA, read-out: EC50 [nM], 0% HSA) [nM]	EC50 ([3]; 0.1% HSA, read-out: EC50 [nM], 0.1% HSA) [nM]	EC50 [4] [nM]	EC50 ([5]; 0% HSA) [nM]	Emax ([5]; read-out: Emax (%)) [%]	EC50 [6] [nM]	Relative purity loss [%] [7] [%]	Increase in FI (fluorescence intensity) [8]	Lag time [8] [h]
CCCCCCCCCCCCCCCC(=O)N[C@@H](CCC(=O)NCCCC[C@H](NC(=O)[C@@H](NC(=O)[C@H](CCCCN)NC(=O)[C@@H](NC(=O)[C@@H]1CCCN1C(=O)[C@@H](NC(=O)[C@H](CC(=O)O)NC(=O)[C@H](CC(C)C)NC(=O)[C@H](CO)NC(=O)[C@H](CC(C)C)NC(=O)[C@@H](NC(=O)[C@@H](N)Cc1ccccc1)[C@@H](C)O)C(C)C)[C@@H](C)O)[C@@H](C)CC)C(=O)N[C@@H](CCC(N)=O)C(=O)N[C@@H](CCCCN)C(=O)N[C@@H](CC(C)C)C(=O)N[C@@H](CC(C)C)C(=O)N[C@@H](CCCCN)C(=O)N[C@@H](CCC(N)=O)C(=O)N[C@@H](CCC(=O)O)C(=O)N[C@@H](CCCCN)C(=O)N[C@@H](CCC(N)=O)C(=O)N[C@@H](CCCCN)C(=O)N[C@@H](CCCCN)C(=O)N[C@@H](CCC(N)=O)C(=O)N[C@@H](CCCNC(=N)N)C(=O)N[C@@H](CCC(N)=O)C(=O)N[C@@H](CCCCN)C(=O)N[C@@H](C)C(=O)N[C@@H](CCCCN)C(=O)N[C@H](C(=O)N[C@@H](CC(N)=O)C(=O)N[C@@H](CCCCN)C(=O)N[C@@H](CCC(N)=O)C(=O)N[C@H](C(=O)N[C@@H](CC(C)C)C(=O)N[C@@H](CCC(=O)O)C(=O)N[C@@H](CCC(N)=O)C(=O)N[C@H](C(N)=O)C(C)C)[C@@H](C)CC)[C@@H](C)O)C(=O)O [SEQ ID NO: 10] (H-FTLSLDVPTKIK([γGlu-Palmitoyl])QKLLKQEKQKKQRQKAKTNKQILEQV-NH2)	0.07	91									
CC[C@H](C)[C@H](N)C(=O)N[C@H](C(=O)N[C@@H](CC(C)C)C(=O)N[C@@H](CO)C(=O)N[C@@H](CC(C)C)C(=O)N[C@@H](CC(=O)O)C(=O)N[C@@H](C(=O)N1CCC[C@H]1C(=O)N[C@H](C(=O)N[C@@H](CCCCN)C(=O)N[C@@H](CC(C)C)C(=O)N[C@@H](CCCCNC(=O)COCCOCCNC(=O)COCCOCCNC(=O)CC[C@H](NC(=O)CCCCCCCCCCCCCCCCC(=O)O)C(=O)O)C(=O)N[C@@H](CCC(N)=O)C(=O)N[C@H](C(=O)N[C@@H](CC(C)C)C(=O)N[C@@H](CC(C)C)C(=O)N[C@@H](CCCCN)C(=O)N[C@@H](CCC(N)=O)C(=O)N[C@@H](CCC(=O)O)C(=O)N[C@@H](CCCNC(=N)N)C(=O)N[C@@H](CCC(N)=O)C(=O)N[C@@H](CCCCN)C(=O)NC(C)(C)C(=O)N[C@@H](CCC(N)=O)C(=O)N[C@@H](CCCNC(=N)N)C(=O)N[C@@H](CCC(=O)O)C(=O)N[C@@H](CCC(N)=O)C(=O)N[C@@H](C)C(=O)N[C@@H](CCC(=O)O)C(=O)N[C@@H](CCCCN)C(=O)N[C@@H](CC(N)=O)C(=O)N[C@@H](CCCCN)C(=O)N[C@@H](CCC(N)=O)C(=O)N[C@H](C(=O)N[C@@H](CC(C)C)C(=O)N[C@@H](C)C(=O)N[C@@H](CCC(N)=O)C(=O)N[C@H](C(N)=O)C(C)C)[C@@H](C)CC)[C@@H](C)CC)[C@@H](C)CC)C(C)C)C(C)C [compound 130] (H-IVLSLD[dV]PIKLK([AEEA-AEEA-γGlu-C18 diacid])QILLKQERQK[Aib]QREQAEKNKQILAQV-NH2; N-terminus assumed)			0.05	2.11	0.13	> 1000	20.3	4.3	4.25	No	>45
